Measurements published in publication PMC12298883, “Discovery of Cyclopentane-Based Phospholipids as Miltefosine Analogs with Superior Potency and Enhanced Selectivity Against Naegleria fowleri” (Pharmaceuticals, 2025).
Like-named read-outs stand apart in the source and are kept apart here.

How the values were obtained:
N. fowleri trophozoites = experiment: Anti-amoebic viability assay (CellTiter-Blue) with microscopic observation; assay type: cell-based, Naegleria fowleri; conditions: for Selectivity Index: CC50 of C6 glial cell divided by IC50 of inhibition of N. fowleri; for Relative Potency to Miltefosine: IC50 of miltefosine divided by IC50 of compound, N. fowleri; for IC50 / IC90: N. fowleri trophozoites, 48 h, viability; for IC50: mean ± SD of three assays, read-out: IC50 of Inhibition of N. fowleri; for IC90: mean ± SD; for morphological changes of N. fowleri (microscopy): treated trophozoites versus 0.1% DMSO negative control
Method: (§1) A viability assay was performed to evaluate the inhibitory activity of the tested compounds by determining their IC50 values against N. fowleri, using miltefosine as a reference drug. To assess the selectivity of the tested compounds relative to miltefosine, cytotoxic values that reduced the viability of C6 glial cells by 50% were established.
(§2) N. fowleri Carter NF69 strain (ATCC 30215; American Type Culture Collection, Manassas, VA, USA) was used. Amoeba trophozoites were cultured and maintained in Nelson’s medium containing 5% foetal bovine serum (FBS; Gibco, Grand Island, NY, USA) and 1% penicillin/streptomycin (P/S; Gibco, Grand Island, NY, USA) at 37 °C [56]. C6 rat glial cells (C6 cells; ATCC CCL-107) were cultured in Dulbecco’s Modified Eagle’s Medium (DMEM; Gibco, Grand Island, NY, USA) supplemented with 10% FBS (Gibco, Grand Island, NY, USA) and 1% P/S (Gibco, Grand Island, NY, USA) at 37 °C in a humidified incubator under 5% CO2 atmosphere.
N. fowleri trophozoites (5 × 10^4 cells/well) were seeded in a 96-well microplate (Thermo Fisher Scientific, Waltham, MA, USA) in Nelson’s medium and incubated at 37 °C overnight. N. fowleri trophozoites were treated with 2-fold serial dilutions of tested compounds (from 0 to 200 µM) or miltefosine (150 µM) and incubated at 37 °C for 48 h. The viability of the amoebae was determined using the CellTiter-Blue® Cell viability assay (Promega, Madison, WI, USA). Inhibitory concentration 50 (IC50) and IC90 were calculated by the nonlinear regression method using GraphPad Prism 9.1.0 software (GraphPad Software, San Diego, CA, USA). Amoebae treated with 0.1% DMSO were used as a control, representing 100% cell viability. Morphological changes of the amoebae were observed microscopically.

[1] = Cytotoxicity assay for C6 cells (CellTiter-Blue); assay type: cell-based; conditions: rat, C6 glial cells, viability, mean ± SD
Method: as §1, §2
(§3) The potential cytotoxicity of tested compounds and miltefosine in C6 cells was analysed. The cells were seeded in a 96-well microplate (Thermo Fisher Scientific; 2 × 10^4 cells/well), respectively, and incubated overnight until 80% confluent. Serially diluted tested compounds and miltefosine were treated to the cells as described above. Morphological changes of the cells were observed by microscopic examination. Cell viability was determined using the CellTiter-Blue® Cell viability assay (Promega, […], USA). The cytotoxic concentrations 50 (CC50) of tested compounds and miltefosine were calculated using GraphPad Prism 9.1.0 software (GraphPad Software, San Diego, CA, USA). The […] (SI) was determined by the ratio between CC50 and IC50. Cells treated with 0.1% DMSO, which was confirmed not to alter the morphology of the cells by microscopic examination, were used as controls with 100% cell viability.

C6 glial cells = experiment: Cytotoxicity assay for C6 cells (CellTiter-Blue); assay type: cell-based; conditions: C6 rat glial cells, viability; mean ± SD
Method: as §1, §2, §3

SMILES	Selectivity Index (N. fowleri trophozoites)	Relative Potency to Miltefosine (N. fowleri trophozoites)	IC50 (N. fowleri trophozoites)	IC50 (N. fowleri trophozoites; Naegleria fowleri)	IC90 (N. fowleri trophozoites; Naegleria fowleri)	CC50 [1]	CC50 (C6 glial cells)	morphological changes of N. fowleri (microscopy) (N. fowleri trophozoites)	fold the potency of trans-configured behenyl derivative 2d (N. fowleri trophozoites; N. fowleri IC50 ratio versus compound 2d)
CCCCCCCCCCCCCCCCOP(=O)([O-])OCC[N+](C)(C)C [Miltefosine]	~1.08	1.00 fold	146.53 ± 0.12 µM	146.44 ± 0.12 µM	> 200 µM	157.8 ± 1.49 µM	158.9 ± 1.49 µM	–	–
CCCCCCCCCCCCCO[C@@H]1CCC[C@H]1COP(=O)([O-])OCC[N+](C)(C)C [Compound 2a]	7.53	–	–	42 ± 1.32 µM	109 µM	316.6 ± 2.1 µM	–	dose-dependent morphological changes	–
CCCCCCCCCCCCCOC[C@@H]1CCC[C@H]1OP(=O)([O-])OCC[N+](C)(C)C [Compound 3b]	3.90	–	–	40.9 ± 1.9 µM	104 µM	159.5 ± 0.87 µM	–	dose-dependent morphological changes	–
CCCCCCCCCCCCCCCCCCCCCCOC[C@@H]1CCC[C@H]1OP(=O)([O-])OCC[N+](C)(C)C [Compound 3d]	3.49	6.03 fold	–	24.3 ± 1.1 µM	187 µM	84.9 ± 1.29 µM	–	dose-dependent morphological changes	2.29 fold
